Results as given in BigSolDB 2.1.

C[C@H](N)C(=O)O
solubility (mole fraction)
Conditions	283.15 K	293.15 K	303.15 K	313.15 K	323.15 K
in acetone	7.1e-05	0.000116	0.000138	0.000166	0.000202
in acetonitrile	7.6e-05	0.000121	0.000157	0.000178	0.000209
in ethanol	0.000193	0.000226	0.000244	0.000251	0.00027
in ethyl acetate	7.8e-05	0.00014	0.00016	0.00018	0.000217
in isobutanol	0.000294	0.000314	0.000332	0.000346	0.000361
in isopropanol	8.2e-05	0.000144	0.000174	0.00019	0.000245
in methanol	0.000407	0.000428	0.00049	0.000531	0.00062
in n-butanol	0.000414	0.000449	0.000517	0.000611	0.000895
in n-pentanol	0.000216	0.000253	0.00032	0.000382	0.000465
in n-propanol	0.000122	0.000215	0.000261	0.000313	0.000452
in sec-butanol	0.000297	0.000333	0.000407	0.000552	0.000734
in water	0.0279	0.0308	0.0342	0.038	0.042
